Experimental data as given in ChEMBL document CHEMBL3507680, “University of Dundee, Gates Library screen for HepG2 cell viability”.

Experiment: Human HepG2 cell viability assay in 384 well format
Assay type: toxicity, cell-based
Design: dose 125 nL, time 70.5 hour; concentration not given beside the values
Conditions: HepG2 cells, read-out: Inhibition

SMILES	cytotoxicity at 70.5 h [%]
CS(=O)(=O)N1CC[C@H]2O[C@H](C(=O)NCCc3ccncc3)CC[C@H]21	14.6
O=C(COCc1ccccc1)N1CCCC1c1noc(C2CC2)n1 (configuration not stated)	-7.31
O=C(N[C@@H]1CN(Cc2ccsc2)[C@@H]2CCCO[C@@H]21)C1CC1	9.03
CC(NC(=O)N1CCN(CCc2ccccc2)CC1)c1nncn1C (configuration not stated)	-11
Cc1cccc(C)c1NC(=O)CCNC(=O)c1ccoc1	-3.89
CC(NC(=O)NCCCc1n[nH]c(N)c1C#N)c1ccc(F)cc1 (configuration not stated)	-6.13
Cc1cn2c(n1)CCC(NC(=O)c1oc(Br)cc1C)C2 (configuration not stated)	-11.5
OC(CN1CCOCC1)c1cc(Cl)ccc1Cl (configuration not stated)	9.36
COc1cccc2c1ccn2CC(=O)N1CCCC(C(=O)O)C1 (configuration not stated)	21.4
Cc1nc(C(C)C)sc1C(=O)NCCNc1ncccn1	-10.9
CCC1CCCCN1C(=O)Cn1nc(-c2cc(C)oc2C)cc(N)c1=O (configuration not stated)	-3.58
CCC1CCc2c(c3ccccc3[nH]c2=O)O1 (configuration not stated)	24.6
Cn1nc(-c2ccccc2)cc1[C@H]1CN2CC[C@H]1C[C@@H]2CNS(C)(=O)=O	-6.73
CCn1ncc(CN2CCCC(C(=O)c3ccc(Cl)cc3)C2)c1C (configuration not stated)	-6.46
CC(=O)N1CCC2(CCN(C(=O)c3ccc(F)c(C(F)(F)F)c3)C2)C1 (configuration not stated)	-12.8
NC1CCc2nc(-c3cccnc3)nc(Nc3ccc(F)cc3)c2C1 (configuration not stated)	3.41
COc1ccc(Cl)cc1CCNC(=O)NCc1noc(C)n1	-3.63
CC(C)N(C)Cc1cn2c(n1)CN(Cc1ccsc1)CC2	10.4
O=C(NCc1nnc2n1CCC2)c1cn(-c2cccc(Br)c2)nn1	-6.53
CSCC(=O)N1CCC(Oc2cccc(C)c2)CC1	-7.4
O=C(NCCOc1ccccc1)NCC(O)c1cccs1 (configuration not stated)	-11.8

SMILES	cytotoxicity at 70.5 h [%]
O=C([C@H]1C[C@H]2OCC[C@H]2N(C(=O)c2cnccn2)C1)N1CCCCO1	-8.15
c1cncc(CO[C@H]2CN(Cc3ccco3)[C@@H]3COC[C@H]23)c1	-3.78
O=C1NCCCC1NC(=O)C1(c2cccc(Cl)c2)CCC1 (configuration not stated)	-0.27
CCn1cnnc1C1CCN(C(=O)COc2ccccc2)CC1	-9.36
CC(C)n1cnnc1CN1C(=O)CCc2ccccc21	-1.8
CNC(=O)Cn1cc(C#N)c(=O)c2cc(Br)ccc21	-3.12
c1ccc(-c2noc(CN3CCCC(Cn4cncn4)C3)n2)nc1 (configuration not stated)	-11.5
CCS(=O)(=O)NCCNc1cc(-n2cccc2)ncn1	-0.787
c1cncc(CNc2ncnc3c2CCN(Cc2ccsc2)CC3)c1	-5.06
C1CN(c2nc3c(c(NC4CC4)n2)CN(CC2CCOC2)CC3)CCO1 (configuration not stated)	-9.83
NC(=O)NC(=O)CN1CCN(CC2CC2)c2ccccc21	8.16
Cc1nn(C)c(C)c1C1COCCN1C(=O)CCc1ccccc1 (configuration not stated)	-1.71
CC(NCC1CCN(CCO)CC1)c1ccc(F)c(Cl)c1 (configuration not stated)	0.00897
Cc1ccc(CN2CCN(Cc3ccncc3)CC2=O)cc1	-0.378
CCCn1[nH]c(CNc2cccc(Cl)c2)nc1=O	-15.4
O=S(=O)(CC1CCCCO1)Nc1cc(F)ccc1-n1cccn1 (configuration not stated)	9.49
Cc1cc(C)c(C(=O)N[C@H](C(N)=O)c2ccccc2)c(=O)[nH]1	12.8
CC(=O)N(Cc1ncc(C(C)C)o1)C1CCN(Cc2cc(C)no2)C1 (configuration not stated)	-4.1
O=C(O)c1ccccc1CN1CCC2(Cc3ccccc3CNC2=O)C1 (configuration not stated)	-5.35
O=C1CCC(C(=O)Nc2cnn(-c3ccccc3Br)c2)N1 (configuration not stated)	-15.6
CC(=O)N(C)c1nc(CN2CCOC(Cn3cc(C)cn3)C2)cs1 (configuration not stated)	13.6

SMILES	cytotoxicity at 70.5 h [%]
O=S(=O)(NCC1(O)CCOCC1)c1ccccc1Br	-0.33
N#CCCN(Cc1ccccn1)C(=O)c1cccc(CN2CCCC2)c1	-1.86
Cc1noc(C)c1-c1cccc(CC2CCN(C(=O)CN)C2)n1 (configuration not stated)	-4.83
CC(C)(C)c1n[nH]c(C2CN(Cc3nnc(C4CC4)o3)CCO2)n1 (configuration not stated)	-6.03
CN1CCC(N(C)C(=O)CCc2ccc(F)c(F)c2)C1=O (configuration not stated)	-6.34
COCC(NC(=O)c1cc(C)n(C)n1)c1cccc(C(F)(F)F)c1 (configuration not stated)	4.67
COc1nn(C)c2c1CCCN(C(=O)c1ccccc1F)C2	-95.9
CN(C)CCNC(=O)c1noc2c1CN(C(=O)N(C)C)CC2	-6.62
CCC1CN(Cc2nnc(C3CC3)o2)CCN1CCOC (configuration not stated)	0.024
Cc1cc(-c2cc(C3CCOC3)c(C#N)c(N)n2)ccc1Cl (configuration not stated)	-10.8
Cc1noc(C)c1CNC(=O)Nc1ccc(N2CCOC(C)C2)cc1 (configuration not stated)	-13.8
Cc1cccc(NC2CCN(C(=O)Nc3ccccn3)CC2)n1	2.1
COCC1CN(Cc2cc(C)on2)Cc2cn(CC3CCCC3)nc21 (configuration not stated)	-8.99
CC(C)(CN)NS(=O)(=O)c1c(F)cccc1F	2.67
CCn1cnnc1C1CCN(C(=O)c2c(C)oc(C)c2C)CC1	0.3
CC(C)c1nn(C)c(N2CCOCC2)c1CNCCS(C)(=O)=O	3.3
CCNc1ncc(C(=O)N2CCOC(CCCc3ccccc3)C2)cn1 (configuration not stated)	14.5
COc1ccc(F)c(F)c1C(=O)N1C[C@@H](CN(C)CCO)[C@@H](CO)C1	17
Cc1ncc(CC(=O)N2CCC3(CCC(=O)N(CCO)C3)CC2)c(=O)[nH]1	-13.5
COc1c(C2CCCN2C(=O)c2csc(C(C)C)n2)c(C)nn1C (configuration not stated)	-12.3
O=C(O)c1ccc(CCNC(=O)C2(O)Cc3ccccc3C2)cc1	-12.7

SMILES	cytotoxicity at 70.5 h [%]
Cc1ccc(Cc2cnc(NC(=O)C3CNC(=O)N3)s2)cc1F (configuration not stated)	-0.116
O=c1ccc2c([nH]1)CCC(NCc1ccncc1)C2 (configuration not stated)	-2.51
Cc1nc(NC(=O)C(C)N2CCN(c3ncccn3)CC2)sc1C (configuration not stated)	-8.18
O=C(CCCc1nnc(-c2ccccc2)o1)N1CCN(C2CC2)CC1	0.0439
Cc1cnn(CC2CCCN2C(=O)c2cc3c(F)cccc3[nH]2)c1 (configuration not stated)	6.2
Cc1noc(CNC(=O)C2CSCCC(=O)N2)n1 (configuration not stated)	-12.9
CC(O)CN1CCC(CN(C)Cc2cc(F)cc3cccnc23)CC1 (configuration not stated)	-2.25
CCCSc1ncccc1C(=O)NCc1ccc(S(N)(=O)=O)cc1	-4.05
CCOCc1ccccc1NC(=O)NC1CCN(C2CCCC2)C1 (configuration not stated)	-6.21
COc1cc(N2C[C@H]3CCC[C@@H](CN4CCOCC4)[C@H]3C2)ncn1	-8.48
CC1CN(C)CCN1Cc1cccc(C(=O)N(C)C)c1 (configuration not stated)	33.2
CCOCCCC(=O)NS(=O)(=O)c1ccc(C)s1	-0.611
Cc1cccc(CN2CCc3[nH]nc(C(=O)N(C)C)c3C2)n1	33.4
CCNC(=O)C(C)NC(=O)Nc1ccccc1SCC (configuration not stated)	-16.9
CSCC[C@H](N)c1nnc(SCc2cc(C)ccc2C)o1	-5.14
Cc1cnc(CN(C)C2CCN(CCn3cc(C#N)cn3)C2)o1 (configuration not stated)	7.37
N#CC1(C(=O)N2CCCN(c3nccs3)CC2)CCCCC1	-4.97
O=S(=O)(Cc1ccccc1Cl)CC(O)CO (configuration not stated)	4.74
COc1ccc(CNC(=O)NCc2ccc(C)cc2)cn1	-7.46
